Consider 8 molecules from PMC9663589, “Anti-tumor effects of P-LPK-CPT, a peptide-camptothecin conjugate, in colorectal cancer” (Communications Biology, 2022).

Data set [1] has as its system human CRC cell lines. Nature of the data set: Peptide binding to a panel of human CRC cell lines. The following applies: confocal imaging, in contrast to NCM460; FITC-labeled. The class given is cell-based.
Protocol: NCM460, Colo320HSR, HCT116, LoVo, HT29 and SW480 cells were respectively incubated with FITC-labeled P-LPK (Random peptide P-CON) peptides for 2 h at 37 °C and washed with PBS for three times. The cells were fixed with 4% paraformaldehyde for 30 min at room temperature, and then 4,6-diamidino-2-phenylindole (DAPI) was used for nucleic acid stain. A laser scanning confocal microscope was used to visualize the cells. The fluorescence intensity was analyzed using the Image-Pro Plus 6.0 software. For cell localization experiment, 20 μg/ml rhodamine-labeled peptides were incubated with NCM460 and HCT116 for 2 h, and then washed with PBS for three times. After that, the cell membrane was stained with a blue cell membrane probe (Thermo Fisher Scientific, Cat. No. W11263). The binding of Rhodamine-P-LPK to cells and their localization in cells was observed under a confocal microscope.
In a further data set the test system is SLC1A5 in HT29 cells. Nature of the data set: FITC-P-LPK binding after SLC1A5 knockdown. The class given is cell-based, human. The following applies: si-SLC1A5, 48 h. The method, then:
(§1) Fig. 6 P-LPK bound to SLC1A5 and entered CRC cells through endocytosis. a, b Western blotting analysis of SLC1A5 in NCM460, HCT116, LoVo, SW480, HT29 and Colo320HSR cells. After knocking down SLC1A5 in HCT116 and HT29, the binding intensity of FITC-P-LPK to cells was observed by confocal microscopy. Bar, 10 μm. c, d Effects of different endocytosis inhibitors on the internalization of FITC-P-LPK. HCT116 cells were pre-treated with 10 µM chlorpromazine, 50 μM methyl-β-cyclodextrin, 20 µM Amiloride hydrochloride for 30 min at 37 °C. Subsequently, the cells were incubated with FITC-P-LPK for 2 h. Then the fluorescence intensity was observed by confocal microscopy and detected using a multi-well plate reader (n = 5, means ± SD, NC vs CPZ, p = 0.0001; NC vs MβCD, p = 0.9069; NC vs EIPA, p = 0.9812) (****p < 0.0001). Bar, 10 μm. e The competition experiment with SLC1A5 substrates glutamine. FITC-P-LPK was incubated with increasing concentrations (0–32 mM) of glutamine in HCT116 cells at 37 °C for 2 h. The fluorescence intensity was measured in a multi-well plate reader (n = 5, means ± SD). […]
(§2) Primary antibodies against SLC1A5 (Abcam,  Cat No. ab237704,1:1000) and secondary antibodies labeled with HRP (YEASEN, 33701ES60, China,1:5000) was applied. Signals were detected using ECL Kit (Pierce Biotech, Rockford, IL). β-Actin (Sigma,USA, A5441) was performed as an internal control.

Another data set deals with SLC1A5 in HCT116 cells. Nature of the data set: FITC-P-LPK binding after SLC1A5 knockdown. The data set is classed as cell-based, human. The following applies: si-SLC1A5, 48 h. The method, then: as §1, §2
For the next data set, the system named is α-2-macroglobulin. The following applies: androgen-independent prostate cancer cells; cited from earlier work. An excerpt:
(§3) The specific binding mechanisms of a peptide to a cell is presumably by its binding to a given receptor expressed at the cell membrane.

Data set [2] is described as follows: in vivo. Further details: species or system human xenograft in BALB/c nude mice. Particulars: female, BALB/c nude, mouse, iv, 3.7 MBq, total radioactivity, T/NT ratio. The method, then: (§4) To obtain ^68Ga, 0.1 M HCl was used to elute a ^68Ge-^68Ga generator. The radioactivity of eluate was monitored. The radioactive elution peak was collected for ^68Ga radiolabeling experiment. An aliquot of 150 μg of compound P-LPK or P-CON was put in a glass vial and dissolved with 0.2 M sodium acetate/acetic acid buffer, pH 3.8. Then ^68GaCl3 tracer was added, and the pH was adjusted to fall in a range of 3.5~4 with 0.1 M NaOH. The solution was stored at room temperature for 0.5 h. The radiochemical purities of ^68Ga-P-LPK and ^68Ga-P-CON were measured with thin-layer chromatography (TLC), using silica gel-impregnated glass fiber stripe (iTLC SG) and 0.25 M sodium citrate/citric acid buffer as mobile phase. ^68GaCl3 was used as a control.
(§5) Each U87 and HCT116 tumor-bearing mouse was injected in a tail vein with 3.7 MBq (100 μCi, 0.1 nmol in 100 μl) of ^68Ga-P-LPK or ^68Ga-P-CON under isoflurane anesthesia (n = 4 per group). For static PET, 5-min scans were acquired at 30 min, 60 min, and 120 min after injection. The maximum radioactivity concentrations within a tumor or an organ were obtained from mean pixel values within the multiple regions of interest (ROI) volume.
For the blocking experiment, unlabeled P-LPK was first injected into mice (n = 3 per group), and 3.7 MBq ^68Ga-P-LPK was then injected. Static PET images were acquired at 30 min, 60 min and 120 min post-injection.

A further data set relates to U87 tumors. Kind of data set: in vivo. Also on record: species or system human xenograft in BALB/c nude mice. Particulars: female, BALB/c nude, mouse, iv, 3.7 MBq, 2 h. The method, then: as §4, §5
Data set [3] in a line: in vivo. Also on record: species or system human xenograft in BALB/c nude mice. Particulars: female, BALB/c nude, mouse, iv, 3.7 MBq, total radioactivity, T/NT ratio. The method, then:
as §4, §5
This is another data set of the same source.

Data set [4] deals with human CRC cell lines. Particulars: earlier phage display study; cited from earlier work. From the text:
The phage display technique is a powerful tool to identify novel targeting peptides in researches and clinics[10]–[12]. By screening whole cells, it is able to identify short peptides that interact with cell surface molecules.

The next data set concerns CRC cells. The following applies: conjugated to CPT.
Another data set concerns HCT116 cells. Nature of the data set: Glutamine competition experiment (FITC-P-LPK uptake). The class given is cell-based, human. Particulars: 0–32 mM glutamine, 37 °C, 2 h. The method, then: Then these cells were washed with ice-cold PBS three times gently, suspended in PBS and transferred to a 96-well costar plate. The fluorescence intensity was measured in a multi-well plate reader (BioTek synergy4).

The subject of data set [5] is Plasminogen activator inhibitor 1 precursor (PAI1). Particulars: MDA-MB-231, bioinformatics analysis; cited from earlier work.
Text: as §3

Data set [6] has as its system Metalloproteinase Inhibitor 1 (TIMP-1). Particulars: MDA-MB-231, bioinformatics analysis; cited from earlier work.
Text: as §3

Data set [7] deals with 78 kDa glucose-regulated protein. Particulars: androgen-independent prostate cancer cells; cited from earlier work.
Text: as §3

“Also recorded” adds a separate entry of the source. No end group written: not given here.

With “FITC-P-LPK (LPKTVSSDMSLN; also: FITC label, position not given here)”, the “FITC-peptide binding to CRC cells” value in the data set on human CRC cell lines [1] is recorded as “stronger green fluorescence in CRC cells than normal NCM460 cells; also recorded: abundant binding capacity to human CRC cell lines”. The “Fluorescence after SLC1A5 knockdown” value in the data set on SLC1A5 in HT29 cells and in the data set with SLC1A5 in HCT116 cells was “reduction of the fluorescence” in each case.

Regarding “PKRGFQD [peptide targeting androgen-independent prostate cancer cells]”, in the data set on α-2-macroglobulin, the Binding result is on record as “bind specifically to α-2-macroglobulin”.

Consider “DLPSRTSALASG [68Ga-P-CON, metal not drawn]”, for which, in “in vivo [2]”, the tissue to tissue ratio at 0.5 h was found to be 1.58, the tissue to tissue ratio at 1 h amounted to 1.49 and the tissue to tissue ratio at 2 h is 1.37. The T/NT ratio in the data set on U87 tumors turned out to be 1.28. Further, in the data set “in vivo [3]”, the tissue to tissue ratio at 0.5 h stood at 1.75, the tissue to tissue ratio at 1 h was 1.56 and the tissue to tissue ratio at 2 h was 1.33.

For DWSSWVYRDPQT [CBP-DWS], the “Binding to CRC cells” value in the data set on human CRC cell lines [4] is reported as “selectively bound to CRC cells”. Besides, in the data set with CRC cells, the “Improvement of CPT killing when used as targeting vector” value is listed as “did not improve the targeted killing ability”.

On to `NC(=O)CC[C@H](N)C(=O)O` [glutamine], for which, in the data set with HCT116 cells, the “Effect on uptake of FITC-P-LPK” value is listed as “does not affect the uptake of P-LPK”.

Regarding “DTFNSFGRVRIE [peptide targeting MDA-MB-231]”, the Targeting result in [5] is on record as “specifically targeted”.

As to PRWAVSP [peptide targeting MDA-MB-231], the Targeting result in [6] is listed as “specifically targeted Metalloproteinase Inhibitor 1 (TIMP-1)”.

For the molecule “SNTRVAP [peptide targeting androgen-independent prostate cancer cells]”, in [7], the Binding entry is “bind specifically”.
